How the values were obtained:
[1] = system: TNFα-induced gene expression in Human Microvascular Endothelial Cells (HMEC); experiment: Microarray study of TNFα-induced gene expression in HMEC; type: cell-based
Procedure: Effects of BDMC/Curcumin/Curcuminoids were Studied in TNFα-Induced Gene Expression in Human Microvascular Endothelial Cells (HMEC):
Micro array analysis was carried out to identify the sets of gene differentially expressed in TNFα treated endothelial cells pretreated/not pretreated with demethylated curcuminoids (BMDC, curcumin)/with curcuminoids. Data acquisition and image processing were performed using GCOS (Gene Chip Operating Software, Affymetrix). Genes that were >2.0 fold up regulated in TNFα-treated group compared to TNFα untreated control group were selected and subjected to hierarchical clustering. […] These sub-clusters were subjected to further functional analysis using DAVID (Database for Annotation, Visualization and Integrated Discovery NIAID, NIH) (FIG. 10, 11). Major known pathways (KEGG, Kyoto Encyclopedia of Genes and Genomes) identified in each of the cluster have been illustrated as pathway maps marking the candidate genes.
GeneChip™ screening of TNFα-inducible transcriptome of HMEC identified 1195 probe sets that were induced by a magnitude of two-fold or higher.

[2] = Particle size distribution study (Malvern particle size analyzer, laser diffraction); type: physicochemical; conditions: nanoemulsified vs unformulated
Procedure: This study proves that a curcumin molecule which is originally 374 nm in the unformulated form is emulsified into 8-11 nm sized particles through a unique process, which has been indicated for this enhanced transport and efficacy of curcumin through the formulation. The study was conducted using Malvern particle size analyzer. The map of scattering intensity versus angle is the primary source of information used to calculate the particle size. The scattering of particles is accurately predicted by the Mie scattering model allowing accurate sizing across the widest possible dynamic range. During the laser diffraction measurement, particles are passed through a focused laser beam. These particles scatter light at an angle that is inversely proportional to their size. The angular intensity of the scattered light is then measured by a series of photosensitive detectors. The advantage of this study is that there is no sample preparation involved. […] Additional peaks can be observed which is contributed by the high molecular weight excipients used to prepare the formulation.

phosphorylase kinase = conditions: Reddy & Aggarwal, FEBS Lett 1994; cited from earlier work
psoriasis = conditions: Heng et al., Br J Dermatol 2000; cited from earlier work

particle size [2] [nm]	particle size ([2]; listed as unformulated curcumin 98%) [nm]	Structure (SMILES)	effect on TNFα ([1]; HMEC challenged with TNFα)	number of TNFα inducible genes sensitive to the substance ([1]; microvascular endothelial cells challenged with TNFα, 1195 probe sets induced two-fold or higher) [genes]	phosphorylase kinase inhibition (phosphorylase kinase)	resolution of psoriasis (psoriasis)
		O=C(/C=C/c1ccc(O)c(O)c1)CC(=O)/C=C/c1ccc(O)c(O)c1 [bis-O-demethyl curcumin, Bis-O-Demethyl curcumin]	antagonizing effects on TNFα	1065		
374	373	COc1cc(/C=C/C(=O)CC(=O)/C=C/c2ccc(O)c(OC)c2)ccc1O [curcumin]			selective phosphorylase kinase inhibitor	leads to resolution of psoriasis

Source: patent publication US8535693B2, “Topical formulation(s) for the treatment of inflammation, skin and mucosal disorders and other diseases thereof” (Laila Pharmaceuticals Private Limited, priority 2008, dated 2013)
